Reference: patent US11884750B2, “Cationic cell penetrating peptides and the use thereof” (CELLTROY CO., LTD., priority 2021, dated 2024)
Entries after “also recorded” stand apart in the source; their conditions may differ.

What was measured:
[1] = test system: HT1080 cell line; test: Cell penetration efficiency using connective tissue (fibrosarcoma) cells; type: cell-based; details: 4 μM FITC-conjugated CPP, one hour
Protocol: (§1) Subsequently, to confirm whether the CPPs according to the present invention show excellent cell permeability into different types of cells/tissues, various tissue-derived cells were treated with biologically active molecule-conjugated CPPs to compare its delivery capacity with TAT. As in the previous examples, each cell was aliquoted in a plate at an appropriate density, and cultured in a 10% FBS-added medium under a condition of 37° C. and 5% CO2 for 24 hours. Subsequently, the cells were treated with 4 μM each of FITC-conjugated CPP or FITC-conjugated TAT and incubated for one hour. After the completion of the incubation, the cells were transferred to a sterile tube using 0.25% trypsin and centrifuged to remove the medium. Afterward, the cells were washed with 500 μL of D-PBS twice to completely remove the medium, and finally, resuspended in 400 μL of D-PBS and intracellular fluorescence was measured by flow cytometry (FACSCanto II).

[2] = test system: A-427 cell line; test: Cell penetration efficiency using lung cells; type: cell-based; details: A-427 lung cells, 4 μM FITC-conjugated CPP, one hour
Protocol: as §1

[3] = test system: SNU-46 cell line; test: Cell penetration efficiency using laryngeal cells; type: cell-based; details: SNU-46 laryngeal cells, 4 μM FITC-conjugated CPP, one hour
Protocol: as §1

[4] = test system: SH-SY5Y cells; test: Cell penetration efficiency in human neuroblastoma cells, 4 μM, flow cytometry; type: cell-based; details: one hour; for cell permeability compared with TAT: 4 μM FITC-conjugated CPP, flow cytometry; for Score / Score/TAT: 4 μM FITC-conjugated peptide; for Score: intracellular fluorescence by flow cytometry; for Score/TAT: ratio to FITC-conjugated TAT
Protocol: The cell penetration efficiency of the cationic CPPs selected in Example 1 was evaluated in neuroblastoma. In further detail, SH-SYSY cells, which is a human neuroblastoma cell line, were seeded in 24-well plates to have a cell density of 1×10^7 cells/well, and cultured in 10% FBS-added DMEM under conditions of 37° C. and 5% CO2 for 24 hours. In addition, the cells were treated with 4 μM each of FITC-conjugated CPPs (C12, C14, C16, C31, C52, and C67), or FITC-conjugated TAT, and incubated for one hour. After the termination of the incubation, the cells were transferred to a sterile tube using 0.25% trypsin and centrifuged to remove the medium. Afterward, the cells were washed with 500 μL of D-PBS twice to completely remove the medium, and finally, resuspended in 400 μL of D-PBS and intracellular fluorescence was measured by flow cytometry (FACSCanto II).
(§2) To evaluate the cell penetration efficiency of the additionally selected cationic CPPs, an experiment was conducted using human epidermal cells or human neuroblastoma cells. In further detail, HaCAT cells, which is a human epidermal cell line, or SH-SYSY cells, which is a human neuroblastoma cell line, were seeded in 24-well plates to have a cell density of 1×10^7 cells/well and cultured in 10% FBS-added DMEM under conditions of 37° C. and 5% CO2 for 24 hours. In addition, the cells were treated with 4 μM each of FITC-conjugated peptides and FITC-conjugated TAT for one hour. After the completion of the culture, the cells were transferred to a sterile tube using 0.25% trypsin and centrifuged to remove the medium. Afterward, the cells were washed with 500 μL of D-PBS twice to completely remove the medium, and finally, resuspended in 400 μL of D-PBS and intracellular fluorescence was measured by flow cytometry (FACSCanto II).
as §1

[5] = test system: HGB cell line; test: Cell penetration efficiency in glioblastoma cells; type: cell-based, human; details: 4 μM FITC-conjugated CPP, one hour
Protocol: as §1

[6] = test system: HDF cell line; test: Cell penetration efficiency in skin cells (HDF); type: cell-based; details: 4 μM FITC-conjugated CPP, one hour
Protocol: as §1

[7] = test system: HEK293T cell line; test: Cell penetration efficiency using kidney cells; type: cell-based; details: 4 μM FITC-conjugated CPP, one hour
Protocol: as §1

[8] = test system: HepG2 cell line; test: Cell penetration efficiency using liver cells; type: cell-based; details: 4 μM FITC-conjugated CPP, one hour
Protocol: as §1

[9] = test system: HeLa cell line; test: Cell penetration efficiency using cervical cancer cells; type: cell-based; details: 4 μM FITC-conjugated CPP, one hour
Protocol: as §1

[10] = test system: HaCAT cells; test: Cell penetration efficiency in human epidermal (skin) cells, 4 μM, flow cytometry; type: cell-based; details: 4 μM FITC-conjugated CPP, one hour
Protocol: The cell penetration efficiency of the cationic CPPs selected in Example 1 was evaluated using human epidermal cells. In further detail, HaCAT cells, which is a human epidermal cell line, were seeded in 24-well plates to have a cell density of 1×10^7 cells/well, and cultured in 10% FBS-added DMEM under conditions of 37° C. and 5% CO2 for 24 hours. Subsequently, the cells were treated 4 μM each of the FITC-conjugated CPP or FITC-conjugated TAT, and incubated for one hour. After the termination of the incubation, the cells were transferred to a sterile tube using 0.25% trypsin, and the medium was removed through centrifugation. Afterward, the cells were washed with 500 μL of D-PBS twice to completely remove the medium, and finally, resuspended in 400 μL of D-PBS and intracellular fluorescence was measured by flow cytometry (FACSCanto II).
as §2, §1

[11] = test system: monocytes; test: Cell penetration efficiency using monocytes; type: cell-based; details: 4 μM FITC-conjugated CPP, one hour
Protocol: as §1

[12] = test system: macrophages; test: Cell penetration efficiency using macrophages; type: cell-based; details: macrophages differentiated from THP1 cells, 4 μM FITC-conjugated CPP, one hour
Protocol: as §1, with “II). Macrophages were used by inducing differentiation from THP1 cells. Specifically, the THP-1 cells were aliquoted on a cover glass laid on a 24-well plate to have a density of 6×10^4 cells/well, and after the addition of 100 ng/mL of phorbol 12-myristate 13-acetate (PMA), the cells were incubated for 48 hours to induce the differentiation into macrophages. After 48 hours, the cells were washed with Dulbecco's phosphate buffered saline (DPBS) to perform an experiment.” for “II).”

Sequence	cell permeability compared with TAT [1]	cell permeability compared with TAT [2]	cell permeability compared with TAT [3]	cell permeability compared with TAT [4]	Score [4]	Score/TAT [4]	cell permeability compared with TAT [5]	cell permeability compared with TAT [6]	cell permeability compared with TAT [7]	cell permeability compared with TAT [8]	cell permeability compared with TAT [9]	cell permeability compared with TAT [10]	cell permeability compared with TAT [11]	cell permeability compared with TAT [12]
ALVLLRRRRRDRKP [C14]	higher cell permeability	higher cell permeability	higher cell permeability	higher cell permeability	1382	2.663	higher cell permeability	higher cell permeability	higher cell permeability	higher cell permeability	higher cell permeability	increased cell permeability; also recorded: higher cell permeability		
RTRLLRRLRALKPR [C223]					408	0.786					higher cell permeability		higher cell permeability	
KRKLKVRRKLREPR [C115]				higher cell permeability	563	1.085							higher cell permeability	
RLRALVRRKQRARP [C82]	higher cell permeability	higher cell permeability		higher cell permeability	628	1.210						higher cell permeability	higher cell permeability	
RPALKQRRWRRKKK [C117]	higher cell permeability	higher cell permeability	higher cell permeability	higher cell permeability	936	1.803	higher cell permeability	higher cell permeability			higher cell permeability	higher cell permeability	higher cell permeability	
RRALRRRAQRRGAP [C181]				higher cell permeability	682	1.314	higher cell permeability	higher cell permeability			higher cell permeability		higher cell permeability	
LMPSKIRRRKKRKK [C85]	higher cell permeability		higher cell permeability	higher cell permeability	798	1.538		higher cell permeability				higher cell permeability	higher cell permeability	higher cell permeability
KRRKLRIKRRIRVP [C208]	higher cell permeability		higher cell permeability	higher cell permeability	1326	2.555		higher cell permeability			higher cell permeability	higher cell permeability	higher cell permeability	
YRPRRKKITKKLKR [C283]	higher cell permeability		higher cell permeability		514	0.990	higher cell permeability		higher cell permeability		higher cell permeability		higher cell permeability	higher cell permeability
RPIRKLLRQARQRR [C131]				higher cell permeability	790	1.522	higher cell permeability	higher cell permeability			higher cell permeability		higher cell permeability	
YRPRRKKATKKLKR [C284]				higher cell permeability	532	1.025	higher cell permeability		higher cell permeability		higher cell permeability			higher cell permeability
RPLVRRRLRRAVRR [C226]			higher cell permeability		474	0.913					higher cell permeability	higher cell permeability	higher cell permeability	higher cell permeability
KKRKKRRKKRKVDP [C67]	higher cell permeability	higher cell permeability	higher cell permeability	higher cell permeability	2328	4.486	higher cell permeability	higher cell permeability	higher cell permeability	higher cell permeability	higher cell permeability	increased cell permeability		
MKRLLKVVRRRRRP [C201]			higher cell permeability	higher cell permeability	802	1.545	higher cell permeability				higher cell permeability			higher cell permeability
